The values that follow are results of earlier work, collected in patent publication US6365180B1, “Oral liquid compositions” (priority 1998, dated 2002).

For this data set the following is noted: enteric coated tablet versus aqueous solution.

In the case of `O=C(O)Cc1ccccc1Nc1c(Cl)cccc1Cl` [sodium diclofenac], the oral bioavailability result is on record as “more orally bioavailable from an enteric coated tablet than from an aqueous solution”.
